Data set [1] concerns the target T1, human D2R/β-arrestin (Homo sapiens (Human), UniProt P14416). Put plainly: Gi/cAMP agonist assay (Lance Ultra cAMP, forskolin). Format: cell-based. The note with it: CHO-K1 cells expressing human D2R/β-arrestin; agonist mode, 2.5 μM forskolin. As for the experimental part: Eu-cAMP tracer solution (10 μl, PerkinElmer, 360 μl of Tracer in 17.64 ml kit buffer) and ULight-anti-cAMP solution (10 μl, 120 μL antibody in 17.88 ml kit buffer) was then added to each well.

In another data set the target is D2 receptor (Homo sapiens (Human), UniProt P14416). The experiment in a line: D2 radioligand binding assay.
Data set [2] deals with T1, human D2R/β-arrestin. The experiment in a line: cell-based. The note with it: β-arrestin Antagonist, CHO-K1 cells expressing human D2R/β-arrestin; antagonist mode, quinpirole 130 nM.
Method: Cells were prepared for assays by growing cultures for up to 2 weeks (from about 6-20 passages). A vial of frozen cells was thawed in a water bath held at 37° C. The cells were then transferred into a 50 ml tube with 10 ml growth media. The vial was rinsed with growth media and the contents transferred to the 50 ml tube. The 50 ml tube was centrifuged at 1200 rpm for 5 minutes at room temperature. […] When the cells reached about 90% confluence (approximately 3 days between passages), the cells were passaged and used for either the agonist or antagonist assays as described below.
The cells were prepared for β-arrestin assays as described above. The assays were performed using a PathHunter® β-Arrestin Detecting Kit (DiscoveRX). The cells were grown on 225 mm dishes, then washed once with 1×PBS (Cellgro), followed by digestion with 2.5 ml 1× Detachment reagent (DRX 92-0009) for approximately 2 minutes.
Data set [3] has as its target T1, human D2R/β-arrestin. The experiment in a line: β-arrestin agonist assay (PathHunter). Type of data set: cell-based. To be noted: CHO-K1 cells expressing human D2R/β-arrestin; agonist mode. As for the experimental part: The detection reagent (9.6 μL, Buffer:Emerald II:Galactor-Star in a 19:5:1 ratio, i.e., 14.06 mL:3.7 mL:0.74 mL=18.5 mL) was then added to the agonist plates.

Data set [4] addresses T1, human D2R/β-arrestin. Put plainly: cell-based. To be noted: cAMP Antagonist, CHO-K1 cells expressing human D2R/β-arrestin; antagonist mode, 2.5 μM forskolin and 2.7 nM quinpirole.
Another data set is described as follows: Brain protein binding. Format: in vitro ADME.
Data set [5] is described as follows: Pharmacokinetic and brain distribution study in mice. Format: in vivo. The note with it: single intraperitoneal dose 30 mg/kg, male C57BL/6 mice; for half-life / AUC / Cmax: mouse, ip. As for the experimental part: Pharmacokinetic Studies on Mice Brains
Twelve male C57BL/6 mice were weighed and administered intraperitoneally with a dose of test compound (Examples 90, 157, 125) solution formulation. The dosing volume administered for the intraperitoneal route was at 10 mL/kg. Blood samples (approximately […]) were collected from retro-orbital plexus of each mouse under light isoflurane anesthesia at 0.08, 0.5, 1, 2, 4, and 8 hr. Following the collection of blood, plasma was also harvested by centrifugation and stored at −70° C. until analysis. After collection of plasma, the animals were euthanized and brain samples were isolated at 0.08, 0.5, 1, 2, 4, and 8 hr. Tissue samples (brain) were homogenized using ice-cold phosphate buffer saline (pH 7.4) and homogenates were stored below −70° C. until analysis. Total homogenate volume was three times the tissue weight. Concentrations of test compound in mouse plasma and brain samples were determined by LC-MS/MS method.
Identical extraction procedures were used for the plasma/brain homogenate study samples and the spiked plasma calibration standards: A 25 μL sample of either study sample (plasma/brain) or spiked calibration standard was added to individual pre-labeled micro-centrifuge tubes. A volume of 100 μL of IS (antipyrine, 500 ng/mL) prepared in acetonitrile was then added to the micro-centrifuge tubes, except in a sample used as a negative control where only acetonitrile was added and vortexed for 5 minutes. Samples were centrifuged for 20 minutes at the speed of 4000 rpm at 4° C. Following centrifugation, 100 μL of the supernatant was sampled from each centrifuge tube and transferred into insert vials. These vials remained within the auto-sampler for the LC/MS/MS analysis. Standards used for calibration were prepared by spiking 10 μL of the test compound in 190 μL of control (used as a negative control) mouse plasma/brain homogenate.
The plasma and brain concentration-time data of test compounds was provided for data analysis. The plasma and brain concentration-time data was then used for the pharmacokinetic analysis. Non-Compartmental-Analysis module in Phoenix® WinNonlin® (Version 6.3) was used to assess the pharmacokinetic parameters. Peak plasma concentrations (Cmax) and time for the peak plasma concentrations (Tmax) were the observed values. The areas under the concentration time curve (AUClast and AUCinf) were calculated by linear trapezoidal rule. The terminal elimination rate constant, ke was determined by regression analysis of the linear terminal portion of the log plasma concentration-time curve.
Illustrative results are presented in FIG. 2, the pharmacokinetic parameters are as follow: […]

The mark [6] stands for this setting: brain, read-out: Brain T1/2 (converted).
The mark [7] stands for this setting: plasma, read-out: Plasma T1/2 (converted).

Read-outs that look alike come from different tables or passages of the source.

T1 sequence (P14416 whole entry): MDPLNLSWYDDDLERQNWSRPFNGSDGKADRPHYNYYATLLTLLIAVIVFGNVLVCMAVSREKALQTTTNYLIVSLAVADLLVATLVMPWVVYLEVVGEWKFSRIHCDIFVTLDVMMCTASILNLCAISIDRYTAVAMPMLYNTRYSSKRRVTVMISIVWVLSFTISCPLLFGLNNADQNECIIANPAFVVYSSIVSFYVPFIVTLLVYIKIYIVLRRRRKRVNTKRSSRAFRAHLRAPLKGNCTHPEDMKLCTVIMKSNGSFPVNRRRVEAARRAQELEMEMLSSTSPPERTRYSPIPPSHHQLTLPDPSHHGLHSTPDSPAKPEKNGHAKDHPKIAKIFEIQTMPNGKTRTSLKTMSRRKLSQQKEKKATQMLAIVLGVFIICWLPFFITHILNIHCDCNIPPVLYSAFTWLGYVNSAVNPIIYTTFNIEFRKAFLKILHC
D2 receptor, sequence (P14416 whole entry): as above

In general, EC50 refers to the midpoint of the concentration-response curve. In general, Ki refers to the dissociation constant of the complex between target and ligand, obtained from inhibition or displacement. In general, IC50 refers to the concentration at which inhibition is half-maximal. The fraction unbound is the share of the substance not bound to proteins or other matrix. A high value points to much free substance. The term AUC denotes the area under the concentration-time curve, a measure of exposure. A higher AUC goes with high exposure. The Cmax is the maximum level reached in the sampled fluid or tissue. Regarding `CC1(Oc2ccc(Cl)cc2)CCN(CCOc2ccc(C(F)(F)F)cc2)CC1` [Compound 125, 4-(4-Chlorophenoxy)-4-methyl-1-(2-(4-(trifluoromethyl)phenoxy)ethyl) piperidine], the EC50 at human D2R/β-arrestin [1] lay within 100 to 1000 nM; at human D2R/β-arrestin [3], 10000 to 30000 nM. The Ki at D2 receptor lay in the range of 1000 to 10000 nM. Moreover, the IC50 at human D2R/β-arrestin [2] and at human D2R/β-arrestin [4] was above 30000 nM in each case. Moreover, in “Brain protein binding”, the fraction unbound was 0.002. Further, the “Brain AUC” value in data set [5] (brain) came out at 222.3 µM·h. The “Brain Cmax” value in data set [5] (brain) turned out to be 37.9 µM. The half-life was 7 h in data set [5] (setting [6]) and 13.4 h in data set [5] (setting [7]). For the same compound, in data set [5] (plasma), the AUC is 69.6 µM·h. This compound also registered a Cmax in data set [5] (plasma) of 19.8 µM.
As to `CC1(Oc2ccc(Cl)cc2)CCN(CCOc2ccc(F)cc2C(F)(F)F)CC1` [Compound 157, 4-(4-chlorophenoxy)-1-(2-(4-fluoro-2-(trifluoromethyl)phenoxy)ethyl)-4-methylpiperidine], the EC50 at human D2R/β-arrestin [1] is 100 to 1000 nM; at human D2R/β-arrestin [3], above 30000 nM. This compound also showed a Ki at D2 receptor of 100 to 1000 nM. Also, the IC50 against human D2R/β-arrestin [2] and on human D2R/β-arrestin [4] was 100 to 1000 nM each time. For the same compound, the fraction unbound in “Brain protein binding” is below 0.001. Moreover, the “Brain AUC” value in data set [5] (brain) came to 70.4 µM·h. In data set [5] (brain), the “Brain Cmax” value was found to be 7.03 µM. The figures for the half-life in data set [5] (setting [6]) and in data set [5] (setting [7]) were 6 h and 6.2 h, respectively. In data set [5] (plasma), the AUC is 14 µM·h. Further, in data set [5] (plasma), the Cmax worked out at 2.47 µM.
